The record followed here is patent US7504371B2, “Organic catalyst with enhanced enzyme compatibility” (The Procter & Gamble Company, priority 2005, dated 2009).

Where a name gives a salt, the structure may show the parent alone.

Holding throughout (format): biochemical
One experiment relates to Duramyl. Description: Organic Catalyst/Enzyme Compatibility Test (alpha amylase activity assay), Duramyl. The following applies: (Ac/Ab)×100; [Peracetic Acid]=5.0 ppm; [organic catalyst]=0.5 ppm; 40° C.; detergent solution. As to the method: (§1) Organic Catalyst/Enzyme Compatibility Test
(§2) The test described below uses an alpha amylase activity assay to measure the impact of organic catalysts on the enzyme.
(§3) Equipment. UV/V is spectrophotometer capable of measuring @ 415 nm, heated magnetic stirrer capable of 40° C., 5 mL Luer lock syringe and filters (Acrodisc 0.45 μm), pH meter, and balance (4-place analytical).
(§4) Reagents. […]
(§5) • a.) TRIS Assay Buffer. […] Mix 6 μL of filtered sample with 250 μL of amylase reagent in a cuvette and place the cuvette in a UV/VIS spectrophotometer and monitor change in absorbance at 415 nm. Determine length of time (tE) to the nearest second required to obtain an absorbance reading of 1.0 for each enzyme. […] Once sample and reagent are mixed, record the absorbance at tE for the respective enzyme. Designate such absorbance Ab. • c.) Analysis of sample with enzyme, peracetic acid, and organic catalyst. […] Once sample and reagent are mixed, record the absorbance at tE for the respective enzyme. Designate such absorbance Ac. […] The ECV for any specific enzyme is (Ac/Ab)×100 where Ab and Ac are the values determined in Steps 2.)b.) and 2.)c.), respectively, for that enzyme. • b.) The ECV for a given organic catalyst is the average of the individual ECV values for the three enzymes. […]

In a further experiment the target is T1, Termamyl (Bacillus licheniformis, UniProt P06278).
T1 construct: purchased Novozymes, Denmark
T1 sequence (P06278 30-512): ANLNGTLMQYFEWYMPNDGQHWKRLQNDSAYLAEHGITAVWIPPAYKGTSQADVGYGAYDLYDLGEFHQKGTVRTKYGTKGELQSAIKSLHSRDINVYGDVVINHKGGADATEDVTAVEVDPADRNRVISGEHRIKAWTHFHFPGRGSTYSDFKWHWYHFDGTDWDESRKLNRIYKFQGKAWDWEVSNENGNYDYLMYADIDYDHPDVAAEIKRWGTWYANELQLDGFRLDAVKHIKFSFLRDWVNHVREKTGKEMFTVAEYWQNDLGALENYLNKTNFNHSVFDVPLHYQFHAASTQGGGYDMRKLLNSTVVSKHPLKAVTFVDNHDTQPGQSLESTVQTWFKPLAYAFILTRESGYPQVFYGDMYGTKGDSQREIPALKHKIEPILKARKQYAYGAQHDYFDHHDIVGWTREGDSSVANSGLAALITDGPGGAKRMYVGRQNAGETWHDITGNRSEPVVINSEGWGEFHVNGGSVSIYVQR
Description: Organic Catalyst/Enzyme Compatibility Test (alpha amylase activity assay), Termamyl. The following applies: (Ac/Ab)×100; [Peracetic Acid]=5.0 ppm; [organic catalyst]=0.5 ppm; 40° C.; detergent solution. As to the method:
as §1, §2, §3, §4, §5

Experiment [1] deals with Termamyl, Natalase, and Duramyl. Description: Organic Catalyst/Enzyme Compatibility Test, average of the three amylases. The following applies: ECV=(ECVter+ECVdur+ECVnat)/3; [Peracetic Acid]=5.0 ppm; [organic catalyst]=0.5 ppm. Here is the method: as §1, §2, §3, §4, §5
Another experiment has as its system Natalase. Briefly: Organic Catalyst/Enzyme Compatibility Test (alpha amylase activity assay), Natalase. The settings on record: (Ac/Ab)×100; [Peracetic Acid]=5.0 ppm; [organic catalyst]=0.5 ppm; 40° C.; detergent solution. Here is the method:
as §1, §2, §3, §4, §5

In the case of `CC(C)(C)OCC(C[N+]1=Cc2ccccc2CC1)OS(=O)(=O)[O-]` (stereo not shown) [Entry 1, Sulfuric acid mono-[2-(3,4-dihydro-isoquinolin-2-yl)-1-((1,1-dimethylethoxy)methyl)ethyl] ester, internal salt], the “Enzyme Compatibility Values ECVdur” value in the experiment on Duramyl was 86. Further, the “Enzyme Compatibility Values ECVter” value at Termamyl worked out at 51. In addition, the “Enzyme Compatibility Values ECV” value in experiment [1] was determined as 65. Also, the “Enzyme Compatibility Values ECVnat” value in the experiment with Natalase is given as 58.
